What was measured:
various cell cultures = details: 12.5 to 50 mM; Marini et al 1985; cited from earlier work
HL-60 cells [1] = test: Cellular proliferation of HL-60 cells (hemocytometer count); format: cell-based, human; details: for reduction in cell growth compared to control HL-60 cells: 96-hour incubation; for Cell Growth (10^5 cells/ml): Table 1, 96 h incubation, initial 2.5×10^5 cells/ml, RA 1.0 μmol/L, ribose 10 mmol/L; for change in cell number over the 96-hour incubation period: initial cell density 2.5×10^5
Excerpt: (§1) For the in vitro studies, HL-60 cells (American Type Culture Collection, Manassas, Va.), an immortal human lymphocyte cell line, at approximately passage twenty were maintained between 2.0×10^5 cells/ml in RPMI 1640 medium containing HEPES buffer (Cellgro, Mediatech Inc., Herdon, Va.), 2 mmol/L L-glutamine (Cellgro), 1% antimycotic (Cellgro), 10% heat treated fetal bovine serum (FBS: GibcoBRL; Life Technologies, Baltimore, Md.), and 0.1% gentamicin (GibcoBRL).
(§2) Experimental flasks were initiated at a concentration of 2.5×10^5 cells/ml. Differentiation of HL-60 cells was induced using all-trans retinoic acid (RA) prepared in 95% ethanol. RA was added to flasks at a concentration of 1.0 μmol/L such that the ethanol concentration added to the flask was less than 0.1%. D-Ribose preparations were made by dissolving powdered ribose (Bioenergy, Minneapolis, Minn.) in RPMI medium followed by sterile filtration.
(§3) The specificity of ribose, time and dose response was examined. The doses of ribose were 1, 5, 10, 25 and 50 mmol/L. In experiments in which one concentration of ribose was used, 10 mmol/L was the dose chosen. The effect of timing of the dose was explored by adding ribose at various times after the addition of the retinoic acid. Specificity was examined by substituting glucose, to eliminate the nonspecific effects of ribose as a substrate for glycolysis or gluconeogenesis, or change in osmolarity.
(§4) Following ninety-six hours of incubated (or as specified), cells were harvested, counted by hemocytometer and viability assessed using trypan dye exclusion. For growth and viability determinations, cells were counted three times within one experiment. Results shown were from at least three experiments. Cells were washed twice with phosphate buffered salt solution (PBS) and brought to a concentration of 2.0×10^7 cells/ml PBS.

[2] = Viability of HL-60 cells (trypan dye exclusion); format: cell-based, human; details: human, HL-60 cells; for viability at 96 h: Table 1, 96 h incubation, RA 1.0 μmol/L, ribose 10 mmol/L
Excerpt: as §1, §2, §3, §4

HL-60 cells [3] = test: Viability of HL-60 cells (trypan dye exclusion); format: cell-based, human; details: summary of Table 1
Excerpt: as §1, §2, §3, §4

HL-60 cells [4] = test: Cell surface markers of maturity (CD11b, CD117) on HL-60 cells; format: cell-based, human; details: for expression of cell surface marker reactive with CD11b antibody: FIG. 1
Experimental: Cell samples for the detection of cell surface molecules were prepared for flow cytometry in 12×17 mm capped conical tubes. To each tube, 30 μl of PBS containing 2% FBS was added. To each of triplicate tubes, a phycoerythrin (PE) labeled antibody (PharMingen, San Diego, Calif.) was added: 20 μl of CD1 lb, 20 μl of CD117, or 20 μl of isotype control (Mouse IgG1,κ). Fifty microliters of prepared cell suspension were added to each tube, followed by gentle mixing. Tubes were placed on ice for forty-five minutes after which 2 ml of cold PBS containing 2% FBS were added to each tube. Tubes were centrifuged (Jouann, at 300×g for 10 minutes) at approximately 5° C. and supernatant removed. One ml of cold 0.5% paraformaldehyde solution was added to the pellet and tubes were vortexed immediately. Prior to analysis, fixed cells were stored in the dark at approximately 4° C. for a period no longer than one week. Samples were analyzed on FACScan. Data were analyzed using WinMDI Software (Scripps Institute, build 1301-19-200, San Diego, Calif.).
Differentiation is accompanied by changes in the surface markers CD117 and CD11b. CD117 is a tyrosine kinase receptor that is expressed in high quantities on undifferentiated cells, while CD11b is a cell adhesion molecule expressed in high quantities on differentiated cells. After harvest, aliquots of the ribose and glucose control cells were allowed to differentiate with retinoic acid as above. An ELISA assay was set up with antibodies against CD117 or CD11b.

HL-60 cells [5] = test: ATP determination in HL-60 cells; format: cell-based, human; details: HL-60 control about five μmoles per 10^9 cells
Experimental: Determination of ATP was performed using a kit purchased from Sigma Diagnostics (St. Louis, Mo.) with slight modifications. 1.0 ml of 12% trichloroacetic acid (TCA) and 1.0 ml of prepared cell suspension (1×10^7 cells/ml) were combined, vortexed and placed on ice for five minutes. Tubes were then centrifuged (Jouann, at 2000×g for 8 minutes) to obtain a clear supernatant. The following reagents were then added into vials containing 0.3 mg NADH: 1.0 ml phosphoglyceraldehyde buffered solution, 1.5 ml water, and 0.15 ml cell supernatant. Samples were distributed into two tubes. One tube was used to obtain an initial spectrophotometric absorbance at 340 nm. Fifteen μl of GAPD/PGK enzyme mixture were added to the second tube and read after ten minutes. Changes in absorbance were calculated and results were expressed as μmol of ATP per 1×10^9 cells.

HL-60 cells [6] = test: Respiratory burst (superoxide anion, ferricytochrome c reduction, PMA stimulated); format: cell-based, human; details: for increase in rate of superoxide generation compared to HL-60 control cells: FIG. 3
Experimental: Specific cells undergo an increase in oxygen uptake when presented with appropriate stimuli, such as invading microorganisms or phorbol ester. The cells utilize this oxygen to produce a series of free radicals that kill the invading microorganism. Production of free radicals occurs via an enzyme called NADPH oxidase. Free radical production is measured spectrophotometrically by a change in color of ferricytochrome c.
The ability of cells to produce superoxide anion was measured by the reduction of ferricytochrome c via a microtiter plate (Levy et al (1990)). Fifty microliters of cells (1×10^7 cells/ml) previously incubated with retinoic acid, ribose or glucose were plated in triplicate wells of a microtiter plate. Each well contained 10 μl of 1.5 mol/L ferricytochrome c substrate and 100 μl of DPBD containing 1 mmol/L glucose. Cells were stimulated to produce superoxide anion by addition of 10 μl of 1.6 μmol/L phorbol 12-myristate 13-acetate (PMA). A kinetic reading on dual wavelengths of 540-490 nM was taken using a Molecular Devices microtiter plate reader (UVMax, Menlo Park, Calif.). Change in absorbance was measured over ten minutes. In order to ensure that reduction of ferricytochrome was the result of superoxide anion, experimental samples were incubated with 10 μl of bovine erythrocyte superoxide dismutase (7500 units/ml). […] Respiratory burst was expressed as the change in optical density/10^6 cells.

spleen cells = test: PHA-stimulated spleen cell proliferation (tritiated thymidine); format: cell-based, mouse
Experimental: (§5) Mice are the species of choice for studies of the immune response because of the numerous nutritional and interventional studies that have been performed on mice. Details of its immune response are well studied and the inbred lines used eliminate any genetic differences. Spleens and thymus were removed from weanling Swiss ICR mice and cell suspensions prepared. The spleen and thymus cells were plated in a 96-well plate and various levels of ribose added to each well in triplicate. Phytohaemagglutinin (PHA), a T-cell stimulator, was added and the cells incubated for 48 hours. Tritiated Thymidine was then added, the cells harvested 24 hours later, and radioactivity incorporated was determined by liquid scintillation counting.

thymus cells = test: PHA-stimulated thymus cell proliferation (tritiated thymidine); format: cell-based, mouse
Experimental: as §5

weanling Swiss ICR mice = test: In vivo loading with ribose, planned immune response and pathogen challenge studies; design: species or system mouse; details: expected result
Excerpt: For the in vivo studies, weanling Swiss ICR mice (three weeks old) were fed a fully nutritious, casein-based diet (AIN 93G).
This pilate study will be followed by a broader study with ten animals per groups. Popliteal lymphoproliferation, delayed-type hypersensitivity (DTH) and thymic and splenic lymphocyte proliferation will be tested. To determine popliteal lymphoproliferation, the popliteal node will be excised and weighed after antigen injection into the hind-leg footpad. DTH can be assessed by measuring ear swelling after sensitization and stimulation with the prop antigen dinitrofluorobenzene. Thymic and splenic proliferation will be determined from cells isolated from the thymus and spleen and pulsed with tritiated thymidine. These four measures are all T-cell responses.
Another group of animals will be fed as above. […] T-cell numbers, proliferation and migration, B-cell numbers, NK cell numbers and migration, neutrophil numbers, migration and oxidative burst will be determined. […] Cells will be quantitated by flow cytometry, oxidative burst will be determined spectrophotometrically and proliferation by incorporation of tritiated thymidine. Cell migration will be determined by flow cytometry as the percentage of cells. In addition, the activity of myeloperoxidase, a degradative enzyme specific to neutrophils, can be measured in lung tissue to determine this cell's migration. […]

[7] = as much as 20 gm; cited from earlier work
[8] = healthy males; U.S. Pat. No. 6,159,942; cited from earlier work
[9] = 10 mM ribose, cells differentiated with retinoic acid

[2H]C(=O)C[C@H](O)[C@H](O)CO [deoxy-D-Ribose, reference compound]
effect on incorporation of tritiated thymidine / metabolic processes (various cell cultures): deeply derange metabolic processes

O=C[C@H](O)[C@H](O)[C@H](O)CO [D-Ribose]
reduction in cell growth compared to control HL-60 cells (HL-60 cells [1]): 30% | Cell Growth (10^5 cells/ml) (HL-60 cells [1]): 6.68 +/− 1.29 10^5 cells/ml | change in cell number over the 96-hour incubation period (HL-60 cells [1]): nearly tripled in number | viability at 96 h [2]: 86.3% | change in viability versus control (HL-60 cells [3]): slight reductions in viability | increase in CD11b (HL-60 cells [4]; [9]): threefold increase | reduction in CD117 (HL-60 cells [4]; [9]): 30% | expression of cell surface marker reactive with CD11b antibody (HL-60 cells [4]; ribose added to RA): increased further | immature cell surface marker recognized by CD117 antibody (HL-60 cells [4]; FIG. 2, ribose added to RA): reduced | change in ATP concentration versus HL-60 control (HL-60 cells [5]): slightly increased | increase in rate of superoxide generation compared to HL-60 control cells (HL-60 cells [6]): no significant increase | spleen cell proliferation (spleen cells; low levels of ribose): slight, but non-significant stimulation | spleen cell proliferation (spleen cells; ribose above 5 mM): tended to inhibit proliferation | thymus cell proliferation (thymus cells; low levels of ribose): slight, but non-significant stimulation | thymus cell proliferation (thymus cells; ribose above 5 mM): tended to inhibit proliferation | immune response parameters after diet supplementation and pathogen challenge (weanling Swiss ICR mice): benefit the immune response | tolerability [7]: well tolerated | effect on incorporation of tritiated thymidine / metabolic processes (various cell cultures): deeply derange metabolic processes | energy level (skeletal muscle ATP, power output) [8]: enhances the energy level

CC1=C(/C=C/C(C)=C/C=C/C(C)=C/C(=O)O)C(C)(C)CCC1 [RA, all-trans retinoic acid]
reduction in cell growth compared to control HL-60 cells (HL-60 cells [1]): 30% | Cell Growth (10^5 cells/ml) (HL-60 cells [1]): 7.01 +/− 2.14 10^5 cells/ml | Growth (cell/ml) (HL-60 cells [1]; Table 2, mean ± SD, n = 5): 727000 ± 102000 cells/mL | change in cell number over the 96-hour incubation period (HL-60 cells [1]): nearly tripled in number | viability at 96 h [2]: 84.5% | viability at 1 μmol/L ([2]; Table 2, mean ± SD, n = 5): 82.6 ± 3.3% | change in viability versus control (HL-60 cells [3]): slight reductions in viability | expression of cell surface marker reactive with CD11b antibody (HL-60 cells [4]; ribose added to RA): high level of expression | CD117 (%) (HL-60 cells [4]; Table 2, immature cell marker, mean ± SD, n = 5): 33.4 ± 9.5^A % | CD11b (%) (HL-60 cells [4]; Table 2, mature cell marker, mean ± SD, n = 5): 35.7 ± 7.5^B % | increase in rate of superoxide generation compared to HL-60 control cells (HL-60 cells [6]): 5.5 fold | Respiratory Burst (% of RA control) (HL-60 cells [6]; Table 2, mean ± SD, n = 5): 100^B % of RA control
